# Measurements as given in US20050226943A1, “Extract of sophora flavescens flavonoids and uses thereof” (priority 2004, published 2005).
# Key:
# TNFα = assay: Inhibition of LPS-induced TNFα in normal human PBMC (ELISA); type: cell-based; details: for TNFa: LPS-stimulated PBMC supernatant; for TNFa Inhibition Ratio (%): LPS-stimulated PBMC
# Description: (§1) Materials: • 1) Cell: PBMC (Peripheral Blood […]) • 2) Drugs: Sophora flavescens flavonoids extract and Kurarinone (Exp. 1) • 3) Positive control: Dexamethason (DEX) • 4) Reagents: Ficoll-Paque Plus (Amersham Bioscience), LPS and dexamethason (CalBiochem.), TNFa ELISA (Enzyme Linked Immunosorbent Assay) Kit and IL1-β ELISA Kit (Jingmei Bioengineer Technology), DMSO (Dimethylsulfoxide) (Sigma)
# (§2) a. PBMC cells are isolated from fresh blood by using of Ficoll-Paque Plus reagent according to the protocol that the manufacturer recommends. Cells are suspended in RPMI 1640 media containing 10% FBS. 100 μl of 1×10^5 cells/ml is seeded in each well of 96 well plate, 1×10^4 cells total in each well and three wells for each reaction.
# (§3) b. Samples are added into cells (final concentrations are 10, 30, 100 ug/ml, respectively. Sample volume that is added into each well is 10 μl). Final concentration of the positive control, dexamethason is 10 μM. 10 μl of media is added into the cells as a negative control. Then the plate is incubated in 37° C., 5% CO2 incubator for 15 minutes, 10 μl of 100 μg/ml LPS was added to each well except for negative controls. Incubate in 37° C., 5% CO2 incubator overnight.
# (§4) c. Spin the plate at 1000 rpm for 15 minutes, transfer supernatant from each well to a new plate, measure the concentrations of TNFα and IL1-β by using assay kits. [formula]
# IL1-β = assay: Inhibition of LPS-induced IL1-β in normal human PBMC (ELISA); type: cell-based; details: for IL-1β: LPS-stimulated PBMC supernatant; for IL-1βInhibition Ratio (%): LPS-stimulated PBMC
# Description: as §1, §2, §3, §4
Structure (SMILES),TNFa (TNFα; positive control 10 uM) [pg/mL],TNFa Inhibition Ratio (%) (TNFα; positive control 10 uM),IL-1β (IL1-β; positive control 10 uM) [pg/mL],IL-1βInhibition Ratio (%) (IL1-β; positive control 10 uM),TNFa (TNFα; sample 10 μg/ml) [pg/mL],TNFa (TNFα; sample 30 μg/ml) [pg/mL],TNFa (TNFα; sample 100 μg/ml) [pg/mL],TNFa Inhibition Ratio (%) (TNFα; sample 10 μg/ml),TNFa Inhibition Ratio (%) (TNFα; sample 30 μg/ml),TNFa Inhibition Ratio (%) (TNFα; sample 100 μg/ml),IL-1β (IL1-β; sample 10 μg/ml) [pg/mL],IL-1β (IL1-β; sample 30 μg/ml) [pg/mL],IL-1β (IL1-β; sample 100 μg/ml) [pg/mL],IL-1βInhibition Ratio (%) (IL1-β; sample 10 μg/ml),IL-1βInhibition Ratio (%) (IL1-β; sample 30 μg/ml),IL-1βInhibition Ratio (%) (IL1-β; sample 100 μg/ml)
"C[C@@H]1C[C@H]2[C@@H]3CCC4=CC(=O)C=C[C@]4(C)[C@@]3(F)[C@@H](O)C[C@]2(C)[C@@]1(O)C(=O)CO [DEX, Dexamethason, reference compound]",120.9 ± 3.4,61.3 ± 1.9,275.6 ± 5.3,72.9 ± 1.6,–,–,–,–,–,–,–,–,–,–,–,–
"C=C(C)[C@H](CC=C(C)C)Cc1c(O)cc(OC)c2c1O[C@H](c1ccc(O)cc1O)CC2=O [Kurarinone, 4H-1-Benzopyran-4-one, 2-(2,4-dihydroxyphenyl)-2,3-dihydro-7-hydroxy-5-methoxy-8-[5-methyl-2-(1-methylethenyl)-4-hexenyl]-]",–,–,–,–,92.2 ± 2.7,39.5 ± 1.5,2.1 ± 0.3,52.5 ± 4.2,78.5 ± 4.1,98.8 ± 2.1,129.8 ± 8.4,80.5 ± 3.7,3.1 ± 0.3,62.4 ± 4.2,75.0 ± 4.1,99.0 ± 0.5
